Results as given in patent US8648081B2 (Eli Lilly and Company, priority 2011, dated 2014).

test system: Lone star tick larvae (Amblyomma americanum); experiment: In Vitro Larval Immersion Microassay (LIM); settings: read-out: % Efficacy (percent larval mortality)
Procedure: In Vitro Larval Immersion Microassay (LIM)
The larval immersion microassay may be conducted as described in White, et al., J. Med. Entomol. […] Briefly, experimental test articles are formulated in dimethylsulfoxide (DMSO) to prepare a stock solution at a concentration of 10 mM. […] Approximately 30-50 Lone star tick larvae (Amblyomma americanum) are submerged into each well containing experimental test articles. After a 30 minute immersion period, larvae are removed with a wide-bore pipette tip in 0.05 ml of fluid, dispensed into a commercial paper tissue biopsy bag which is sealed at the top with a plastic dialysis clip, inverted and allowed to air dry for 60 minutes. Bags containing larvae are then incubated at approximately 27 degrees Celsius and >90% relative humidity. After 24 hours, bags are opened, live and dead larvae are counted and percent larval mortality is calculated as follows: % Efficacy=(# dead larvae)/(# total larvae)×100.

SMILES | mortality at 300 µM
O=C(CNC(=O)c1sc(C2=NO[C@@](c3cc(Cl)c(F)c(Cl)c3)(C(F)(F)F)C2)c2c1CCC2)NCC(F)(F)F [Example 243, (S)-3-(5-(3,5-dichloro-4-fluorophenyl)-5-(trifluoromethyl)-4,5-dihydroisoxazol-3-yl)-N-(2-oxo-2-(2,2,2-trifluoroethylamino)ethyl)-5,6-dihydro-4H-cyclopenta[c]thiophene-1-carboxamide] | ≥ 80%
O=C(NC1CCN(CC(F)(F)F)C1=O)c1sc(C2=NOC(c3cc(Cl)c(F)c(Cl)c3)(C(F)(F)F)C2)c2c1CCC2 (stereo not drawn) [Example 60, 3-(5-(3,5-dichloro-4-fluorophenyl)-5-(trifluoromethyl)-4,5-dihydroisoxazol-3-yl)-N-(2-oxo-1-(2,2,2-trifluoroethyl)pyrrolidin-3-yl)-5,6-dihydro-4H-cyclopenta[c] thiophene-1-carboxamide] | ≥ 80%
C#CCNC(=O)CNC(=O)c1sc(C2=NOC(c3cc(Cl)c(F)c(Cl)c3)(C(F)(F)F)C2)c2c1CCC2 (stereo not drawn) [Example 61, 3-(5-(3,5-dichloro-4-fluorophenyl)-5-(trifluoromethyl)-4,5-dihydroisoxazol-3-yl)-N-(2-oxo-2-(prop-2-ynylamino)ethyl)-5,6-dihydro-4H-cyclopenta[c] thiophene-1-carboxamide] | ≥ 80%
O=C(NC1CCOCC1)c1sc(C2=NOC(c3cc(Cl)c(F)c(Cl)c3)(C(F)(F)F)C2)c2c1CCCC2 (stereo not drawn) [Example 83, 3-(5-(3,5-dichloro-4-fluorophenyl)-5-(trifluoromethyl)-4,5-dihydro-isoxazol-3-yl)-N-(tetrahydro-2H-pyran-4-yl)-4,5,6,7-tetrahydro-benzo[c]thiophene-1-carboxamide] | ≥ 80%
C#CCNC(=O)CNC(=O)c1sc(C2=NOC(c3cc(Cl)cc(Cl)c3)(C(F)(F)F)C2)c2c1CCCC2 (stereo not drawn) [Example 95, 3-(5-(3,5-dichlorophenyl)-5-(trifluoromethyl)-4,5-dihydroisoxazol-3-yl)-N-(2-oxo-2-(prop-2-ynylamino)ethyl)-4,5,6,7-tetrahydrobenzo [c]thiophene-1-carboxamide] | ≥ 80%
O=C(N[C@@H]1CCNC1=O)c1sc(C2=NOC(c3cc(Cl)cc(Cl)c3)(C(F)(F)F)C2)c2c1CCCC2 (stereo partly drawn) [Example 32, 3-(5-(3,5-dichlorophenyl)-5-(trifluoromethyl)-4,5-dihydroisoxazol-3-yl)-N—((R)-2-oxopyrrolidin-3-yl)-4,5,6,7-tetrahydrobenzo[c]thiophene-1-carboxamide] | ≥ 80%
O=C1CCC(NC(=O)c2sc(C3=NOC(c4cc(Cl)c(F)c(Cl)c4)(C(F)(F)F)C3)c3c2CCCC3)CC1 (stereo not drawn) [Example 81, 3-(5-(3,5-dichloro-4-fluorophenyl)-5-(trifluoromethyl)-4,5-dihydroisoxazol-3-yl)-N-(4-oxocyclohexyl)-4,5,6,7-tetrahydrobenzo [c]thiophene-1-carboxamide] | ≥ 80%
FC(F)(F)C1(c2cc(Cl)cc(Cl)c2)CC(c2cc3ccncc3s2)=NO1 (stereo not drawn) [Example 230, 2-[5-(3,5-Dichloro-phenyl)-5-tri-fluoromethyl-4,5-dihydro-isoxazol-3-yl]-thieno[2,3-c] pyridine] | ≥ 80%
O=C(CNC(=O)c1cnc2sc(C3=NOC(c4cc(Cl)cc(Cl)c4)(C(F)(F)F)C3)cc2c1)NCC(F)(F)F (stereo not drawn) [Example 240, 2-(5-(3,5-dichlorophenyl)-5-(trifluoromethyl)-4,5-dihydroisoxazol-3-yl)-N-(2-oxo-2-(2,2,2-trifluoroethylamino)ethyl)thieno[2,3-b]pyridine-5-carboxamide] | ≥ 80%
O=C(NC1CCN(CC(F)(F)F)C1=O)c1sc(C2=NOC(c3cc(Cl)cc(Cl)c3)(C(F)(F)F)C2)c2c1CCCC2 (stereo not drawn) [Example 40, 3-[5-(3,5-Dichloro-phenyl)-5-trifluoro-methyl-4,5-dihydro-isoxazol-3-yl]-4,5,6,7-tetrahydro-benzo[c] thiophene-1-carboxylic acid [2-oxo-1-(2,2,2-trifluoro-ethyl)-pyrrolidin-3-yl]-amide] | ≥ 80%
N#CCNC(=O)CNC(=O)c1sc(C2=NOC(c3cc(Cl)c(Cl)c(Cl)c3)(C(F)(F)F)C2)c2c1CCC2 (stereo not drawn) [Example 54, N-(2-(cyanomethyl-amino)-2-oxoethyl)-3-(5-(3,4,5-trichloro-phenyl)-5-(trifluoro-methyl)-4,5-dihydro-isoxazol-3-yl)-5,6-dihydro-4H-cyclo-penta[c]thiophene-1-carboxamide] | ≥ 80%
C#CCNC(=O)CNC(=O)c1sc(C2=NOC(c3cc(Cl)cc(Cl)c3)(C(F)(F)F)C2)c2c1CCC2 (stereo not drawn) [Example 43, 3-(5-(3,5-dichloro-phenyl)-5-(trifluoro-methyl)-4,5-dihydro-isoxazol-3-yl)-N-(2-oxo-2-(prop-2-ynylamino)ethyl)-5,6-dihydro-4H-cyclopenta[c] thiophene-1-carboxamide] | ≥ 80%
O=C(NC1CCN(C2CC2)C1=O)c1sc(C2=NOC(c3cc(Cl)c(F)c(Cl)c3)(C(F)(F)F)C2)c2c1CCCC2 (stereo not drawn) [Example 84, N-(1-cyclopropyl-2-oxopyrrolidin-3-yl)-3-(5-(3,5-dichloro-4-fluorophenyl)-5-(trifluoromethyl)-4,5-dihydroisoxazol-3-yl)-4,5,6,7-tetra-hydrobenzo[c] thiophene-1-carboxamide] | ≥ 80%
O=C(CNC(=O)c1sc(C2=NOC(c3cc(Cl)c(F)c(Cl)c3)(C(F)(F)F)C2)c2c1CCC2)NCC(F)F (stereo not drawn) [Example 244, 3-[5-(3,5-dichloro-4-fluoro-phenyl)-5-trifluoromethyl-4,5-dihydro-isoxazol-3-yl]-5,6-dihydro-4H-cyclopenta[c]thiophene-1-carboxylic acid [(2,2-difluoro-ethylcarbamoyl)-methyl]-amide] | ≥ 80%
O=C(CNC(=O)c1sc(C2=NOC(c3cc(Cl)c(Cl)c(Cl)c3)(C(F)(F)F)C2)c2c1CCCC2)NCC(F)(F)F (stereo not drawn) [Example 44, N-(2-oxo-2-(2,2,2-trifluoroethylamino)ethyl)-3-(5-(3,4,5-trichlorophenyl)-5-(trifluoromethyl)-4,5-dihydroisoxazol-3-yl)-4,5,6,7-tetrahydrobenzo [c]thiophene-1-carboxamide] | ≥ 80%
O=C(NC1CCCOC1)c1sc(C2=NOC(c3cc(Cl)cc(Cl)c3)(C(F)(F)F)C2)c2c1CCCC2 (stereo not drawn) [Example 69] | ≥ 80%
O=C(N[C@@H]1CCNC1=O)c1sc(C2=NO[C@@](c3cc(Cl)cc(Cl)c3)(C(F)(F)F)C2)c2c1CCCC2 [Example 87b, 3-((S)-5-(3,5-dichlorophenyl)-5-(trifluoromethyl)-4,5-dihydroisoxazol-3-yl)-N—((R)-2-oxopyrrolidin-3-yl)-4,5,6,7-tetrahydrobenzo[c]thiophene-1-carboxamide] | ≥ 80%
O=C(CNC(=O)c1sc(C2=NO[C@@](c3cc(Cl)c(F)c(Cl)c3)(C(F)(F)F)C2)c2c1CCC2)NCC(F)F [Example 245, (S)-3-[5-(3,5-dichloro-4-fluoro-phenyl)-5-trifluoromethyl-4,5-dihydro-isoxazol-3-yl]-5,6-dihydro-4H-cyclopenta[c]thiophene-1-carboxylic acid [(2,2-difluoro-ethylcarbamoyl)-methyl]-amide] | ≥ 80%
O=C(N[C@@H]1CCNC1=O)c1cnc2sc(C3=NOC(c4cc(Cl)cc(Cl)c4)(C(F)(F)F)C3)cc2c1 (stereo partly drawn) [Example 241, 2-(5-(3,5-dichloro-phenyl)-5-(trifluoro-methyl)-4,5-dihydro-isoxazol-3-yl)-N-((R)-2-oxopyrrolidin-3-yl)thieno[2,3-b] pyridine-5-carboxamide] | ≥ 80%
CCNC(=O)CNC(=O)c1sc(C2=NOC(c3cc(Cl)cc(Cl)c3)(C(F)(F)F)C2)c2c1CCCC2 (stereo not drawn) [Example 63, 3-(5-(3,5-dichloro-phenyl)-5-(trifluoro-methyl)-4,5-dihydro-isoxazol-3-yl)-N-(2-(ethylamino)-2-oxoethyl)-4,5,6,7-tetrahydrobenzo [c]thiophene-1-carboxamide] | ≥ 80%
FC(F)(F)C1(c2cc(Cl)cc(Cl)c2)CC(c2cc3cc(Br)cnc3s2)=NO1 (stereo not drawn) [Example 231, 5-Bromo-2-[5-(3,5-dichloro-phenyl)-5-trifluoromethyl-4,5-dihydro-isoxazol-3-yl]-thieno[2,3-b]pyridine] | ≥ 80%
O=C1CCC(NC(=O)c2sc(C3=NOC(c4cc(Cl)cc(Cl)c4)(C(F)(F)F)C3)c3c2CCC3)CC1 (stereo not drawn) [Example 85, 3-(5-(3,5-dichloro-phenyl)-5-(trifluoro-methyl)-4,5-dihydro-isoxazol-3-yl)-N-(4-oxocyclohexyl)-5,6-dihydro-4H-cyclopenta[c] thiophene-1-carboxamide] | ≥ 80%
C#CCNC(=O)CNC(=O)c1sc(C2=NOC(c3cc(Cl)c(Cl)c(Cl)c3)(C(F)(F)F)C2)c2c1CCCC2 (stereo not drawn) [Example 47, N-(2-oxo-2-(prop-2-ynylamino)ethyl)-3-(5-(3,4,5-trichlorophenyl)-5-(trifluoromethyl)-4,5-dihydroisoxazol-3-yl)-4,5,6,7-tetrahydro-benzo[c]thiophene-1-carboxamide] | ≥ 80%

same assay, conditions: tested at 300 micromolar, 30 minute immersion, mortality counted after 24 hours, read-out: % Efficacy (percent larval mortality)

SMILES | mortality at 300 µM
N#CCNC(=O)CNC(=O)c1sc(C2=NOC(c3sc(Cl)c(Cl)c3Cl)(C(F)(F)F)C2)c2c1CCCC2 (stereo not drawn) [Example 96, N-(2-(cyanomethylamino)-2-oxoethyl)-3-(5-(3,4,5-trichlorothiophen-2-yl)-5-(trifluoromethyl)-4,5-dihydroisoxazol-3-yl)-4,5,6,7-tetrahydro-benzo[c]thiophene-1-carboxamide] | ≥ 80%
